Source: the kinase profiling compilation of Christmann-Franck et al. (2016)

Tests used:
Assay in all cases: KINOMEscan competition binding
Details in all cases: compound 10.0 µM
AKT1 (human) = AKT1 (human) (UniProt P31749)
CAMK1G (human) = CAMK1G (human) (UniProt Q96NX5)
CSF1R (human) = CSF1R (human) (UniProt P07333)
DDR2 (human) = DDR2 (human) (UniProt Q16832)
[1] = tested on: EGFR (human), P00533 [747-751 del / S ins]
[2] = tested on: EGFR (human), P00533 [752-759 del]
EPHA3 (human) = EPHA3 (human) (UniProt P29320)
EPHB3 (human) = EPHB3 (human) (UniProt P54753)
EPHB6 (human) = EPHB6 (human) (UniProt O15197)
FLT1 (human) = FLT1 (human) (UniProt P17948)
[3] = tested on: FLT3 (human), P36888 [D835H]
IKBKE (human) = IKBKE (human) (UniProt Q14164)
ITK (human) = ITK (human) (UniProt Q08881)
[4] = biological target: JAK1 JH2 pseudokinase (human) (UniProt P23458)
[5] = biological target: JAK2 JH1 catalytic (human) (UniProt O60674)
[6] = biological target: JAK3 JH1 catalytic (human) (UniProt P52333)
LIMK2 (human) = LIMK2 (human) (UniProt P53671)
MAP2K2 (human) = MAP2K2 (human) (UniProt P36507)
MAP4K3 (human) = MAP4K3 (human) (UniProt Q8IVH8)
MAP4K5 (human) = MAP4K5 (human) (UniProt Q9Y4K4)
MAPK1 (human) = MAPK1 (human) (UniProt P28482)
MARK3 (human) = MARK3 (human) (UniProt P27448)
MAST1 (human) = MAST1 (human) (UniProt Q9Y2H9)
MKNK2 (human) = MKNK2 (human) (UniProt Q9HBH9)
MLTK (human) = MLTK (human) (UniProt Q9NYL2)
MYLK2 (human) = MYLK2 (human) (UniProt Q9H1R3)
PIM3 (human) = PIM3 (human) (UniProt Q86V86)
PIP5K1C (human) = PIP5K1C (human) (UniProt O60331)
PRKAA2 (human) = PRKAA2 (human) (UniProt P54646)
PRKACB (human) = PRKACB (human) (UniProt P22694)
PRKD1 (human) = PRKD1 (human) (UniProt Q15139)
RPS6KA4 KD1 (human) = RPS6KA4 KD1 (human) (UniProt O75676)
SRC (human) = SRC (human) (UniProt P12931)
STK10 (human) = STK10 (human) (UniProt O94804)
Sequence of STK10 (human) (O94804 whole entry, looked up): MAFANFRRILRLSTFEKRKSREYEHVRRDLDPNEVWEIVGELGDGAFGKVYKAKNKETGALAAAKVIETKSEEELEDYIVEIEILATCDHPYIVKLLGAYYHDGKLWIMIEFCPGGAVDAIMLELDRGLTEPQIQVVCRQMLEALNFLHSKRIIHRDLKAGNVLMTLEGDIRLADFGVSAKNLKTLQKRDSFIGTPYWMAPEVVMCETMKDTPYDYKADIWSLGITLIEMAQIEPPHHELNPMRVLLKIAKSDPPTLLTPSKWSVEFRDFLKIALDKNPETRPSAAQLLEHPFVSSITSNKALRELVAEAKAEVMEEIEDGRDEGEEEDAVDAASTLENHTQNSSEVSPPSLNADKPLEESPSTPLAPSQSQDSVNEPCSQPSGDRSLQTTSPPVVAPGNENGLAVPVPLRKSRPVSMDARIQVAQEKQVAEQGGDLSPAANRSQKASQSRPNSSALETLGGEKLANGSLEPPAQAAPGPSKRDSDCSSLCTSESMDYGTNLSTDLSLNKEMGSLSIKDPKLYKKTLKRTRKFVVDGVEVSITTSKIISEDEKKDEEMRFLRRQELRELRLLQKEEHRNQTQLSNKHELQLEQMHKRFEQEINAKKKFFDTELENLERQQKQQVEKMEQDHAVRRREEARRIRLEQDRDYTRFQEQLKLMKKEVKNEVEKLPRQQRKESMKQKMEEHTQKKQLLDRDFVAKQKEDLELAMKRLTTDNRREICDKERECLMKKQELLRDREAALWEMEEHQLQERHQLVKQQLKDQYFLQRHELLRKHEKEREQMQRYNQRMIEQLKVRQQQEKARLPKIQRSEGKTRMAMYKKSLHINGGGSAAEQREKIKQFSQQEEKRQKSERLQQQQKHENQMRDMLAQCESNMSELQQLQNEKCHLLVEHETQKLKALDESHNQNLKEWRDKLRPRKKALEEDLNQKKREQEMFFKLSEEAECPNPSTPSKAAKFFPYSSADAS

TAOK1 (human) = TAOK1 (human) (UniProt Q7L7X3)
Sequence of TAOK1 (human) (Q7L7X3 whole entry, looked up): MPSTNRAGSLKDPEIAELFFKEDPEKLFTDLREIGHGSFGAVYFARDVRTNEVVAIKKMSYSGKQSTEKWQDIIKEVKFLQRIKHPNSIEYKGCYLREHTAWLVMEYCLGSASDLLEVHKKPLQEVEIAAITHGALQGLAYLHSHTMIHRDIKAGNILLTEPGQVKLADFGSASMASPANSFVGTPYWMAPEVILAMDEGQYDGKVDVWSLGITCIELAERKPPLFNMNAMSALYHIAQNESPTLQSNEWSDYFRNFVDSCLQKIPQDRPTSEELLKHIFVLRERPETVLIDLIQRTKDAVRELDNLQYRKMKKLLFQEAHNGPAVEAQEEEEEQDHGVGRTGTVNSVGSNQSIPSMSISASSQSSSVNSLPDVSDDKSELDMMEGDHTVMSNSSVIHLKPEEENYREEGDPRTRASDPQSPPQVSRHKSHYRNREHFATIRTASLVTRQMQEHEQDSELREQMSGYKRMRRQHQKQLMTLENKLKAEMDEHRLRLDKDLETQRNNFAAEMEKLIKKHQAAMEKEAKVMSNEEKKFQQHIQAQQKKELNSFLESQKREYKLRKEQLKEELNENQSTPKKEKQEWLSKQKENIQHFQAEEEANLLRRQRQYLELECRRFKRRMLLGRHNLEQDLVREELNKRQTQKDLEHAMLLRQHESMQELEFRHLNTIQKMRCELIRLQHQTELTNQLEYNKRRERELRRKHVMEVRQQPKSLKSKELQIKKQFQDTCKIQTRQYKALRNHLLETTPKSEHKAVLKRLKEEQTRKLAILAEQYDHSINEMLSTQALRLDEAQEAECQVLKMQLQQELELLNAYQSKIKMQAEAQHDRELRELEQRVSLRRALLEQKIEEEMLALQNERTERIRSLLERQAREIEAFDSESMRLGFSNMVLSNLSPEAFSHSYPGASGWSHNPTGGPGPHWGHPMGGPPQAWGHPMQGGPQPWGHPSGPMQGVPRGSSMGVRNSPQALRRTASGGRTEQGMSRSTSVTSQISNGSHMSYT

TAOK3 (human) = TAOK3 (human) (UniProt Q9H2K8)
TGFBR1 (human) = TGFBR1 (human) (UniProt P36897)
TRPM6 (human) = TRPM6 (human) (UniProt Q9BX84)
TXK (human) = TXK (human) (UniProt P42681)
WEE2 (human) = WEE2 (human) (UniProt P0C1S8)
Sequence of WEE2 (human) (P0C1S8 whole entry, looked up): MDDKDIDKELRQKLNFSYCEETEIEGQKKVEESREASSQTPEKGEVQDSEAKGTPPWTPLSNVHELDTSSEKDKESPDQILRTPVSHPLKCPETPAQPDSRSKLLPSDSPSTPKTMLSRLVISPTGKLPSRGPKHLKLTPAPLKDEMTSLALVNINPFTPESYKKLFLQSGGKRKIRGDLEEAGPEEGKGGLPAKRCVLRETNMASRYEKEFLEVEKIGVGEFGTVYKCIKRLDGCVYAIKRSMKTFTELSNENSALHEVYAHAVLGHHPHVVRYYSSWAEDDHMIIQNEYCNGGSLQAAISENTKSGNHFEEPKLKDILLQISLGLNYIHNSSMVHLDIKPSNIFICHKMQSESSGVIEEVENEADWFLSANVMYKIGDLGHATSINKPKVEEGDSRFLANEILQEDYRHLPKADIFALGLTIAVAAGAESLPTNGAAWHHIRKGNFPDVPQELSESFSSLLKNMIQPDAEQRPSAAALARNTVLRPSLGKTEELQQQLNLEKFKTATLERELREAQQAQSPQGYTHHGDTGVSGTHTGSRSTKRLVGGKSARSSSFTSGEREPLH

Sequence of EGFR (human), P00533 [747-751 del / S ins] (P00533 whole entry, looked up, stated change not applied): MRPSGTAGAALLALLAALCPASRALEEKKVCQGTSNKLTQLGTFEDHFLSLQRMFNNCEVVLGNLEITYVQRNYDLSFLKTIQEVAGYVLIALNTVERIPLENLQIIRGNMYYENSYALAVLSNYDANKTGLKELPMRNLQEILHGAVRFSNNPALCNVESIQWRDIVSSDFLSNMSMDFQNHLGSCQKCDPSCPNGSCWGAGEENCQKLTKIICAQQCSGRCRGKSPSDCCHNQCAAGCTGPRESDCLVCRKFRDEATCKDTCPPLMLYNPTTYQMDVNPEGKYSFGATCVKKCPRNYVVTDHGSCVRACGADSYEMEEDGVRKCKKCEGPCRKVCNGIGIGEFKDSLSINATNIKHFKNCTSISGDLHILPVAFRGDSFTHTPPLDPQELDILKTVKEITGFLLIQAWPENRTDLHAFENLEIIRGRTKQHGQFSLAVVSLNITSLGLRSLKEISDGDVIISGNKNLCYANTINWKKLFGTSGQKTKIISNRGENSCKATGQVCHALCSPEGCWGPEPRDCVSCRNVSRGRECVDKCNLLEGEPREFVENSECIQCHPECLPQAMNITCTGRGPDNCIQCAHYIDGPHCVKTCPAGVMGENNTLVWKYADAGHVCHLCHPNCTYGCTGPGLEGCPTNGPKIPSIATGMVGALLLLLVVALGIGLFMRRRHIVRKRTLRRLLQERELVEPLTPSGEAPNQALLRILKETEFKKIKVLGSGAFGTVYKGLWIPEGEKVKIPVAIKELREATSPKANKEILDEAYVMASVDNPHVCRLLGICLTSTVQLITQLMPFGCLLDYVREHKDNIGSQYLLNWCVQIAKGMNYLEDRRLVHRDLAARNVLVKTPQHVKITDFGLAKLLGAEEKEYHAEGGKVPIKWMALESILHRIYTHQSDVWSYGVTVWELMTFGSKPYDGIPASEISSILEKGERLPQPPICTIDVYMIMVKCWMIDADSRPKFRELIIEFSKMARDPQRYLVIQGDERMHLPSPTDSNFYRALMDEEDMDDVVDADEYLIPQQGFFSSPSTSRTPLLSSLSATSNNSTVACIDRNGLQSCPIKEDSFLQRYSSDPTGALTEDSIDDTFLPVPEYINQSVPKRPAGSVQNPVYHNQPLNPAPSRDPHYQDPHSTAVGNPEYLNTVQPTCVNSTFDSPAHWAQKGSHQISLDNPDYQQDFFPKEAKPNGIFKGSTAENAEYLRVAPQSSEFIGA
Sequence of EGFR (human), P00533 [752-759 del] (P00533 whole entry, looked up, stated change not applied): as above

| SMILES | kinase still bound, per cent of control (AKT1 (human)) [%] | kinase still bound, per cent of control (CAMK1G (human)) [%] | kinase still bound, per cent of control (CSF1R (human)) [%] | kinase still bound, per cent of control (DDR2 (human)) [%] | kinase still bound, per cent of control [1] [%] | kinase still bound, per cent of control [2] [%] | kinase still bound, per cent of control (EPHA3 (human)) [%] | kinase still bound, per cent of control (EPHB3 (human)) [%] | kinase still bound, per cent of control (EPHB6 (human)) [%] | kinase still bound, per cent of control (FLT1 (human)) [%] | kinase still bound, per cent of control [3] [%] | kinase still bound, per cent of control (IKBKE (human)) [%] | kinase still bound, per cent of control (ITK (human)) [%] | kinase still bound, per cent of control [4] [%] | kinase still bound, per cent of control [5] [%] | kinase still bound, per cent of control [6] [%] | kinase still bound, per cent of control (LIMK2 (human)) [%] | kinase still bound, per cent of control (MAP2K2 (human)) [%] | kinase still bound, per cent of control (MAP4K3 (human)) [%] | kinase still bound, per cent of control (MAP4K5 (human)) [%] | also measured |
| --- | --- | --- | --- | --- | --- | --- | --- | --- | --- | --- | --- | --- | --- | --- | --- | --- | --- | --- | --- | --- | --- |
| COc1cc(C(=O)N2CCC(N3CCN(C)CC3)CC2)ccc1Nc1ncc2c(n1)N(C)c1ccccc1C(=O)N2C | 79 | 74 | 98 | 100 | 100 | 99 | 100 | 100 | 31 | 100 | 100 | 96 | 82 | 92 | 70 | 100 | 100 | 99 | 71 | 100 | kinase still bound, per cent of control (MAPK1 (human)): 85%; kinase still bound, per cent of control (MARK3 (human)): 98%; kinase still bound, per cent of control (MAST1 (human)): 100%; kinase still bound, per cent of control (MKNK2 (human)): 1.2%; kinase still bound, per cent of control (MLTK (human)): 99%; kinase still bound, per cent of control (MYLK2 (human)): 98%; kinase still bound, per cent of control (PIM3 (human)): 88%; kinase still bound, per cent of control (PIP5K1C (human)): 96%; kinase still bound, per cent of control (PRKAA2 (human)): 66%; kinase still bound, per cent of control (PRKACB (human)): 100%; kinase still bound, per cent of control (PRKD1 (human)): 28%; kinase still bound, per cent of control (RPS6KA4 KD1 (human)): 100%; kinase still bound, per cent of control (SRC (human)): 100%; kinase still bound, per cent of control (STK10 (human)): 100%; kinase still bound, per cent of control (TAOK1 (human)): 28%; kinase still bound, per cent of control (TAOK3 (human)): 24%; kinase still bound, per cent of control (TGFBR1 (human)): 100%; kinase still bound, per cent of control (TRPM6 (human)): 100%; kinase still bound, per cent of control (TXK (human)): 91%; kinase still bound, per cent of control (WEE2 (human)): 100% |
| CN(C)C/C=C/C(=O)Nc1ccc(C(=O)Nc2cccc(Nc3nccc(-c4cccnc4)n3)c2)cc1 | 100 | 64 | 100 | 64 | 87 | 88 | 73 | 75 | 3.9 | 46 | 28 | 76 | 100 | 0.6 | 8.4 | 10 | 92 | 87 | 57 | 59 | kinase still bound, per cent of control (MAPK1 (human)): 77%; kinase still bound, per cent of control (MARK3 (human)): 100%; kinase still bound, per cent of control (MAST1 (human)): 100%; kinase still bound, per cent of control (MKNK2 (human)): 7.3%; kinase still bound, per cent of control (MLTK (human)): 62%; kinase still bound, per cent of control (MYLK2 (human)): 53%; kinase still bound, per cent of control (PIM3 (human)): 78%; kinase still bound, per cent of control (PIP5K1C (human)): 20%; kinase still bound, per cent of control (PRKAA2 (human)): 95%; kinase still bound, per cent of control (PRKACB (human)): 100%; kinase still bound, per cent of control (PRKD1 (human)): 100%; kinase still bound, per cent of control (RPS6KA4 KD1 (human)): 100%; kinase still bound, per cent of control (SRC (human)): 100%; kinase still bound, per cent of control (STK10 (human)): 100%; kinase still bound, per cent of control (TAOK1 (human)): 28%; kinase still bound, per cent of control (TAOK3 (human)): 37%; kinase still bound, per cent of control (TGFBR1 (human)): 100%; kinase still bound, per cent of control (TRPM6 (human)): 100%; kinase still bound, per cent of control (TXK (human)): 67%; kinase still bound, per cent of control (WEE2 (human)): 100% |
